The values below come from patent EP0903346A1, “SYDNONE IMINE DERIVATIVES” (Chugai Seiyaku Kabushiki Kaisha, priority 1995, dated 1997).

The subject of experiment [1] is platelet rich plasma (PRP). The experiment in a line: Inhibitory effect on platelet aggregation in rabbit. The format is cell-based. To be noted: Oryctolagus cuniculus, aggregation agent arachidonic acid, pre-incubated for 3 minutes, invention compound n = 1 - 3, aspirin n = 7, read-out: Rabbit antiplatelet aggregation effect IC50. How it is done:
Male JW/CSK rabbits weighing 2.6 to 3.1 kg were anesthetized with thiopental (20 mg/kg). Then the blood of each animal was collected from the left carotid artery into a container containing a 3.8% solution of citric acid (9 : 1 v/v). The collected blood was immediately centrifuged at room temperature at 1,300 rpm (230 G) for 10 minutes to give a platelet rich plasma (PRP). Further, a required amount of the blood was centrifuged at 3,000 rpm (1,300 G) for 15 minutes to give a platelet poor plasma (PPP). The PRP to be used in the platelet aggregation test was diluted with PPP to adjust the platelet count to 3 x 10^8. The aggregability was measured by using a platelet aggregation measuring device (TE-500, ERMA) with the use of arachidonic acid ([…]) as an aggregation agent. Each test compound was mixed with PRP and pre-incubated for 3 minutes. Next, the aggregation agent was added thereto and the aggregability was measured for 5 minutes. Thus, the activity of the test compound was evaluated by determining the 50% inhibitory concentration (IC50; µM) thereof to the maximum aggregation induced by the arachidonic acid. As the test compounds, the compounds of the present invention obtained in the above Examples were employed. As a control drug, use was made of aspirin which has been widely known as a platelet aggregation inhinitor. Table E summarizes the results. Table E

Experiment [2] has as its system rat A-V shunt model. The experiment in a line: Effect on blood coagulability in rat A-V shunt model. In kind it is in vivo. The following applies: 10 mg/kg p.o.; from 75 minutes to 2 hours after administration; mean ± S.E. (n = 6). How it is done:
Rat A-V shunts models were prepared by reference to the method of Umezu et al. (Thrombos Haemostas. 1978:39:74 - 83). Male SD rats were anesthetized with sodium pentobarbital (50 mg/kg, i.p.) and fixed in the supine position. A thick polyethylene tube (6 cm; Hibiki No. 7, Kunii Co.) containing a silk suture thread was connected at both ends to another thin polyethylene tube (10 cm, Hibiki No. 4, Kunii Co.) and then inserted into the left common carotid artery and the right internal jugular vein of the rat so as to form an external blood circulation system (A-V Shunt). The blood was circulated within the shunt system for 15 minutes and then the blood coagulates adhering to the silk suture thread in the thick tube was weighed. After repeating this operation thrice, the total weight was determined and the activity of each test compound was evaluated based thereon.
In this experiment, the anti-aggregation effects achieved from 75 minutes to 2 hours after the peroral administration were examined in a vehicle group (0.3% carboxymethyl cellulose, hereinafter referred to simply as CMC; n = 6), a group of the compound of Example 2 (10 mg/kg; n = 6) and a group of FK-409 (10 mg/kg; n = 6) which had been reported as being capable of inhibiting the formation of blood coagulates (European Journal of Pharmacology, 1995:272:39 - 43). Table F summarizes the results. Table F […]

Experiment [3] relates to rat ischemia-reperfusion model. Description: Myocardial necrosis inhibitory effect in rat ischemia-reperfusion model. To be noted: mean ± standard error; for NA/RA: necrosis area/risk area; for CK: serum creatine kinase activity after reflow; for LDH: serum lactate dehydrogenase activity after reflow. The format is in vivo. More on the design: LDH / CK: unit not given here. Here is the method:
Male Sprague Dawley rats weighing 270 to 410 g were anesthetized with sodium pentobarbital (50 mg/kg, i.p.) and fixed in the supine position. A canula was inserted into the trachea of each animal. Then the blood pressure of the animal was measured (AP-621G, Nippon Kohden Corp.) through a polyethylene tube (PE50, Becton Dickinson) inserted into the right femoral artery via a pressure transducer (Life Kit DTS, DX-300, Nippon Kohden Corp.) and the heart rate was determined from the pulse wave (AT-610G, Nippon Kohden Corp.). Two canulae (PE10 and PE50, Becton Dickinson) for injecting the maintenance anesthetic drug (sodium pentobarbital 20 mg/kg/h) and a coloring matter respectively were inserted into the right jugular vein. The left jugular vein was exposed for blood collection. The chest was opened by vertically sectioning the chest region from the third to fifth left ribs about 10 mm apart from the median line under artificial respiration with room air (Harvard respirator, model 683, rate : 60 strokes/min. tidal volume : 10 ml/kg body weight). Then the operative field was enlarged with a wound retractor and the heart sac was peeled off to thereby expose the heart. By using a curved round needle with thread for vascular tract (8mm, 6-0 black blaid silk, Matsuda Medical Industry), a thread of 4 to 5 mm in length was put in the left ventricle in the depth of 2 mm for ligating the coronary artery. After the completion of the operation, the animal was allowed to stand as such for 20 minutes or longer. After confirming that the blood pressure and the heart rate had been stabilized, the experiment was initiated.
In this experiment, use was made of eight groups of rats including: 1) a physiological saline (i.e., the solvent for SIN-1) group; 2) an SIN-1 (3 µg/kg/min) group; 3) another SIN-1 (10 µg/kg/min) group; 4) 1% DMSO-containing physiological saline (adjusted to pH 5 with hydrochloric acid, i.e., the solvent for the compounds of Examples 1 and 2) group; 5) a group of the compound of Example 1 (10 µg/kg/min); 6) another group of the compound of Example 1 (30 µg/kg/min); 7) a group of the compound of Example 2 (3 µg/kg/min); and 8) another group of the compound of Example 2 (10 µg/kg/min). Each drug was intravenously administered continuously for 75 minutes (from 15 minutes before the ligation of the coronary artery to the completion of the reflow) at a rate of 0.95 ml/h. Fifteen minutes after the initiation of the drug administration, the coronary artery was ligated and maintained for 30 minutes. The coronary artery was ligated by the snare method with the use of a polyethylene tube (PE160, Becton Dickinson) and a vascular clamp (C-17 grooved, Natsume). After 30-minutes reflow, the risk area (RA) and the necrosis area (NA) were measured.
The risk area and the necrosis area formed by ligating the coronary artery were measured by the double staining method with Evans blue and triphenyltetrazolium chloride (TTC) in the following manner. To clarify the risk area, the coronary artery was ligated again after the completion of the reflow. Subsequently, 1 ml of 5% Evans blue (Sigma) and a 1 M solution of KCl were successively injected into the jugular vein until the heart arrest. Thus, the non-risk area was stained dark blue. After the heart arrest, the heart was quickly taken out and washed with physiological saline. Then the left ventricle was separated and cut into circular slices of 3 mm in width with a trimming blade (Feather). To decide the necrosis area, these slices were incubated in a 0.1 M phosphate buffer (81 mM Na2HPO4: 19 mM NaH2PO4, pH 7.4) containing 1% TTC at 37°C for 5 minutes. Thus, living cells were exclusively stained red with TTC while the necrosis area was not stained. After staining with TTC, each wet slice was weighed, fixed with 20% formalin and then photographed while allowing to stand in physiological saline. […]

Experiment [4] concerns isolated rat aorta. The experiment in a line: Test with the use of isolated rat aorta (relaxation of potassium chloride contraction). To be noted: read-out: Rat aorta IC50. How it is done:
The thoracic aorta was taken out from male Sprague Dawley rats weighing 450 to 600 g and cut into circular samples of 2 mm in width. […] The contraction reactions of the samples were isometrically recorded with FD pick-up. After 1 to 1.5 hours of equilibration, 30 mM potassium chloride was added to contract the tissue. […] As the test compounds, the invention compounds obtained in the above Examples were employed.

In experiment [5] the test system is anesthetized rat. The experiment in a line: Blood pressure-lowering effect in anesthetized rat. In kind it is in vivo. To be noted: duodenal administration; for Blood pressure-lowering effect ED30: dose causing a decrease in the blood pressure by 30%; for Blood pressure-lowering effect Half duration: half duration at ED30 (recovery to 50% of the maximum decrease in blood pressure). How it is done: Male Sprague Dawley rats weighing 280 to 450 g were anesthetized with sodium pentobarbital (50 mg/kg, i.p.) and fixed in the supine position. A canula was inserted into the trachea of each animal. Then the blood pressure of the animal was measured (AP-621G, Nippon Kohden Corp.) through a polyethylene tube (PE50) inserted into the right femoral artery via a pressure transducer (Life Kit DTS, DX-300, Nippon Kohden Corp.) and the heart rate was determined from the pulse wave (AT-610G, Nippon Kohden Corp.). A canula (PE10) for injecting the maintenance anesthetic drug (sodium pentobarbital 20 mg/kg/h) was inserted into the right femoral vein. The abdominal region was medianly sectioned and a canula (PE50 connected to a injection needle 23G) for duodenal drug administration was inserted thereinto and fixed with Aronalpha for surgical use. After 60-90 minutes of recovery period, the drug was administered into duodenum. After administering the drug, the blood pressure was measured until the average blood pressure returned to the level before the administration.
As the indication of the blood pressure-lowering effect of each drug, the dose causing a decrease in the blood pressure by 30%, based on the level before the administration, was calculated from the dose-response curve and employed as the 30% effective dose (ED30). Moreover, the time required for the recovery to the level corresponding to 50% of the maximum decrease in the blood pressure (half duration) was measured at each dose. Then the half duration at the above-mentioned ED30 was calculated and employed as the indication of the lasting time of the blood pressure-lowering effect (half duration at ED30).
As the test compounds, use was made of the compounds of the present invention obtained in the above Examples. Table C summarizes the results. Table C

The mark [6] stands for this setting: 10 µg/kg/min intravenously for 75 minutes.
[7] abbreviates: 30 µg/kg/min intravenously for 75 minutes.
[8] abbreviates: 3 µg/kg/min intravenously for 75 minutes.

Read-outs that look alike come from different tables or passages of the source.

The IC50 is the concentration needed to halve the response being measured. For `CCN1CCN([n+]2cc([N-]C(=O)[C@H](C)CSC(=O)c3ccccc3)on2)CC1` [Example 68, N-((S)-3-(Benzoylthio)isobutyryl)-3-(4-ethylpiperazin-1-yl)sydnonimine], the IC50 in experiment [1] stood at 10.5 µM.
For the compound `CC/C(=C\C(=N/O)C(N)=O)C(C)[N+](=O)[O-]` (stereo not shown) [FK409], the “Blood coagulability in rat A-V shunt model p.o. administration; wt. (mg) of coagulates” value in experiment [2] turned out to be 89.17 ± 8.43 mg.
Consider `CN1CCN([n+]2cc([N-]C(=O)CCSC(=O)c3ccc(F)cc3)on2)CC1` [Example 135, N-(3-(4-Fluorobenzoylthio)propionyl)-3-(4-methylpiperazin-1-yl)sydnonimine], for which, in experiment [1], the IC50 turned out to be 12.9 µM.
Turning to `C[C@H](CSC(=O)c1ccccc1)C(=O)[N-]c1c[n+](N2CCN(C)CC2)no1` [Example 2, N-((S)-3-(Benzoylthio)isobutyryl)-3-(4-methylpiperazin-1-yl)sydnonimine], the IC50 in experiment [1] is 15.8 µM.
Turning to `CCN1CCN([n+]2cc([N-]C(=O)CSC(=O)C3(C)CCc4c(C)c(O)c(C)c(C)c4O3)on2)CC1` (stereo not shown) [Example 192, N-((6-Hydroxy-2,5,7,8-tetramethylchroman-2-carbonylthio)acetyl)-3-(4-ethylpiperazin-1-yl)sydnonimine], the IC50 in experiment [1] amounted to 3.9 µM.
In experiment [3] (setting [6]), `CN1CCN([n+]2cc([N-]C(=O)CSc3cc(C(C)(C)C)c(O)c(C(C)(C)C)c3)on2)CC1` [Example 1, N-((3,5-Di-t-butyl-4-hydroxyphenylthio)acetyl)-3-(4-methylpiperazin-1-yl)sydnonimine] gave an NA/RA of 33.4±6.1%, a CK of 3237±803 and an LDH of 1538±254. In experiment [3] (setting [7]), the NA/RA was 22.3±6.1 p<0.01 vs. 4%, the CK was found to be 2772±496 and the LDH amounted to 1339±343. Moreover, in experiment [4], the IC50 was determined as 650 nM. In experiment [5], the “Blood pressure-lowering effect ED30” value amounted to 5.5 mg/kg and the “Blood pressure-lowering effect Half duration” value was 151 min.
On to `COc1ccc(C(=O)SCCC(=O)[N-]c2c[n+](N3CCN(C)CC3)no2)cc1` [Example 139, N-(3-(4-Methoxybenzoylthio)propionyl)-3-(4-methylpiperazin-1-yl)sydnonimine], for which the IC50 in experiment [1] came out at 15.8 µM.
On to `CC(C)N1CCN([n+]2cc([N-]C(=O)CSC(=O)c3ccccc3)on2)CC1` [Example 88, N-(Benzoylthioacetyl)-3-(4-isopropylpiperazin-1-yl)sydnonimine], for which, in experiment [1], the half-inhibitory concentration (IC50) was 1.1 µM.
Regarding `CC(=O)SCC(=O)[N-]c1c[n+](N2CCN(C(C)C)CC2)no1` [Example 86, N-(Acetylthioacetyl)-3-(4-isopropylpiperazin-1-yl)sydnonimine], the IC50 in experiment [1] was 1.3 µM.
As to `Cl.N=c1c[n+](N2CCOCC2)[n-]o1` [SIN-1, 3-morpholinosydnonimine hydrochloride, reference compound], in experiment [3] (setting [8]), the NA/RA is listed as 18.5±4.3%, the CK stood at 3138±207 and the LDH turned out to be 1082±60. Further, in experiment [3] (setting [6]), the NA/RA is recorded as 19.3±5.2%, the CK amounted to 2853±507 and the LDH stood at 1196±166. Also, the IC50 in experiment [4] (relaxation of continuous contraction due to 30 mM potassium chloride, thoracic aorta of male Sprague Dawley rats) stood at 850 nM. In addition, in experiment [5], the “Blood pressure-lowering effect ED30” value came to 1.0 mg/kg and the “Blood pressure-lowering effect Half duration” value is on record as 75 min.
`CN1CCN([n+]2cc([N-]C(=O)CSC(=O)c3ccccc3)on2)CC1` [Example 3, N-((Benzoylthio)acetyl)-3-(4-methylpiperazin-1-yl)sydnonimine]: the half-inhibitory concentration (IC50) in experiment [1] was found to be 2.7 µM.
For `CC(=O)Oc1ccccc1C(=O)O` [aspirin, reference compound], the half-maximal inhibitory concentration (IC50) in experiment [1] was 27.5 µM.
